Test results as given in patent publication US11427594B2, “Non brain penetrant A2A inhibitors and methods for use in the treatment of cancers” (iTeos Belgium SA, priority 2018, dated 2022).
Like-named read-outs stand apart in the source and are kept apart here.

Legend:
[1] = Permeability and efflux in Caco-2 cells; assay type: in vitro ADME; conditions: human, Caco-2 monolayer, bidirectional transport, pH 7.4
Method: The transport buffer (TB, pH 7.4) used in the study is Hank's Buffered Saline Solution (HBSS, Gibco, Cat #14025-076) with 10 mM HEPES at pH 7.4. Fetal bovine serum (FBS) (Corning, Cat #Corning-35-076-CV, or other vendors), Minimum Essential Media (MEM) (Gibco, Cat #41500-034) as well as its supplements are purchased from Invitrogen (Carlsbad, Calif., USA). Caco-2 cell line (Cat #HTB-37) is purchased from the ATCC (Rockville, Md., USA). The organic solvents used in the study are purchased from Sigma Aldrich (St. Louis, Mo., USA). For reference compounds (fenoterol, propranolol and digoxin) and test compounds, 0.4 mM intermediate solutions are prepared by diluting 10 mM or other appropriate concentrations of DMSO stock solutions with DMSO. 2 μM dosing solutions for reference compounds and test compounds are prepared by spiking the appropriate volume of intermediate solution to TB with and without 1 μM Zosuquidar. The final concentration of DMSO is no more than 1% (v/v). Caco-2 cells are grown in MEM supplemented with 2 mM L-glutamine, 10% FBS, 100 U/mL penicillin-G and 100 μg/mL streptomycin. The cells are incubated at 37° C., 5% CO2 and relatively saturated humidity. After reaching 80-90% confluency, the cells are gently detached with 0.05% trypsin-EDTA solution. Cells at passage 30-50 are seeded on the 96-well BD insert system (Cat #359274) at the density of 1×10^5 cells/cm2 and cultured for 21-28 days with medium changed every 4-5 days. TB and dosing solutions were pre-warmed to 37° C. before transport assay. The cell monolayer was washed twice with HBSS containing 10 mM HEPES. For A-B (apical to basolateral) directional transport assay, 75 μL dosing solution is added to the apical well. Fill each basolateral well with 250 μL TB. For B-A (basolateral to apical) directional transport assay, 250 μL of dosing solution is added to the basolateral well after filling each apical well with 75 μL TB. Test compound(s) and digoxin are tested at 2 μM in the presence or absence of 1 μM zosuquidar bidirectionally in duplicate. Atenolol and propranolol are tested at 2 μM in the absence of zosuquidar in A to B direction in duplicate. The plates are incubated for 120 minutes at 37° C. with 5% C02 and saturated humidity. The time zero samples are generated by mixing 50 μL initial dosing solution of test compound or reference compound with 100 μL TB and 250 μL quench solution (acetonitrile (ACN) or other appropriate solvent with internal standard(s), based on the bioanalytical method development). At 120 minutes, 150 μL of solution is collected from each A-B receiver well followed by addition of 250 μL quench solution to get A-B receiver sample. And for other samples (A-B donor, B-A donor and receiver), 50 μL of solution is collected from each corresponding well followed by addition of 250 μL quench solution and 100 μL TB. All samples are vortex-mixed and centrifuged at 3220 g for 20 minutes. Subsequently, supernatant is diluted with ultra pure water for LC-MS/MS analysis. The concentrations of test compound in all samples are determined by LC-MS/MS and expressed as peak area ratio of analyte to internal standard. The concentration of samples is expressed using the peak area ratio of Analyte to Internal Standard (Analyte/IS). The apparent permeability coefficient (Papp) is calculated using the following equation: Papp=VR/(Area*Time)*(CR/C0) wherein VR is the solution volume in the receiver chamber (0.075 mL on the apical side, 0.25 mL on the basolateral side); Area is the surface area for the transport, i.e. 0.0804 cm2 for the area of the monolayer; Time is incubation time, expressed in seconds, 2 h=2×3600 s; C0 is the initial concentration in the donor chamber; CR is the final concentrations in receiver chamber. The efflux ratio is calculated using the following equation: Efflux ratio=[…]) where Papp (A-B) and Papp (B-A) are the Papp values of compound in Apical to Basolateral and Basolateral to Apical directional transport, respectively.

A2A receptor = biological target: T1, A2A receptor (Homo sapiens, UniProt P29274); assay: Inhibition of cAMP production in HEK cells (LANCE Ultra cAMP, TR-FRET); assay type: cell-based; conditions: HEK-293 cells with stable transfection of A2A receptor
T1 construct: host or cells: HEK-293
Method: When the A2A receptor is activated, is induces the production of cAMP. The present assay thus aims at showing that cAMP production is inhibited in HEK cells in response to their exposure to the compounds of the invention. HEK-293 cells with a stable transfection of A2A receptor were bought from PerkinElmer® (#ES-011-C). Cells were cultured in EMEM medium (Lonza, #BE12-611F) supplemented with 10% FBS (Lonza, #DE14-801F) and 200 μg/mL of G418 (Tocris, #4131) at 37° C. and 5% CO2. Fresh media without the selection marker was added on the day immediately before the experiment to stop selection pressure. cAMP inhibition and antagonist IC50 determination were accessed using the LANCE® Ultra cAMP Kit from PerkinElmer® (#TRF0262) on white half area 96 well plates (PerkinElmer®, #6005560). The assays were conducted in two different stimulation buffers: • a) normal with 1×HBSS (Gibco®, #141750-95), 5 mM HEPES (Lonza, #BE17-737E), 0.1% BSA and 25 μM Rolipram and • b) HSA with 1×HBSS (Gibco®, #141750-95), 5 mM HEPES (Lonza, #BE17-737E), 2% Human Serum Albumin (Sigma-Aldrich®—A1653), 30 μM of EHNA (Tocris—#1261) and 100 μM Rolipram. Stimulation buffer b) mimics the human situation by increasing the amount of albumin present in the assay. Compounds of the present invention were diluted 100× in either of the buffers depending on the assay performed. A total of 1000 cells per well were pre-incubated for 10 minutes with the compounds of the present invention before adding the corresponded EC80 of A2A agonist (3 nM of NECA in normal buffer) or 5 μM of Adenosine (in HAS buffer) for a total reaction time of 30 minutes. The total volume of the reaction was 20 μl (10 μl of cells, 5 μl of antagonist and 5 μl of agonist). The reaction was finalized by adding 10 μl of 4×EU-cAMP tracer working solution and 10 μl of 4× ULight-anti-cAMP working solution. The TR-FRET signal was measured after 1 hour using a Spectramax Paradigm (Molecular Devices).

[2] = HSA stimulation buffer, 5 μM Adenosine as agonist, 2.0% HSA, read-out: IC50 (nM) (5 μM Adenosine as agonist, 2.0% HSA)
[3] = normal stimulation buffer, 3 nM NECA as agonist, 0.1% BSA, read-out: IC50 (nM) (3 nM NECA as agonist, 0.1% BSA)

T1 sequence (P29274 whole entry): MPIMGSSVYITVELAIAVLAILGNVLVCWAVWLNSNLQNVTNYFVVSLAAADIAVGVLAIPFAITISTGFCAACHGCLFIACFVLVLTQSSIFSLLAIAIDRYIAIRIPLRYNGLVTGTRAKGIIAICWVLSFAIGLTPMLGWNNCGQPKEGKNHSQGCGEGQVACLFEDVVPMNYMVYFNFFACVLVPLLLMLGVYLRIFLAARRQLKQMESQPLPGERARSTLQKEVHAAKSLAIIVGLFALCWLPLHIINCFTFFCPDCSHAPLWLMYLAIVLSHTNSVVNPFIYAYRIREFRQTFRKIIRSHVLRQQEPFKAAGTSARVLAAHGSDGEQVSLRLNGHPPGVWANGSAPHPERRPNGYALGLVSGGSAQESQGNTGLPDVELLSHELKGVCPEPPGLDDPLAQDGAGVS

Structure (SMILES)	efflux ratio at 120 min, 2 μM [1]	IC50 (A2A receptor; [2]) [nM]	IC50 (A2A receptor; [3]) [nM]
Cn1c(=O)n(CCN2CCN(c3cc(OCC[S@@+](C)[O-])c(F)cc3F)CC2)c2nc(N)n3nc(-c4ccco4)nc3c21 [Compound 8, (R)-5-amino-3-(2-(4-(2,4-difluoro-5-(2-(methylsulfinyl)ethoxy)-phenyl)piperazin-1-yl)ethyl)-8-(furan-2-yl)-1-methyl-1H-[1,2,4]triazolo[5,1-i]purin-2-one]	> 400	70	0.3
Nc1nc(NCCN2CCN(c3ccc(O[C@H]4CC[S@@+]([O-])CC4)cc3F)CC2)nc2nc(-c3ccco3)nn12 [Compound 19]	> 110	106	0.8
Nc1nc(NCCN2CCN(c3ccc(C(=O)N4CC[S+]([O-])CC4)cc3F)CC2)nc2nc(-c3ccco3)nn12 [Compound 18, (4-(4-(2-((7-amino-2-(furan-2-yl)-[1,2,4]triazolo[1,5-a][1,3,5]triazin-5-yl)amino)ethyl)piperazin-1-yl)-3-fluorophenyl)(1-oxidothiomorpholino)methanone]	> 80	632	0.5
C[S@+]([O-])CCOc1cc(N2CCN(CCn3ncc4c3nc(N)n3nc(-c5ccco5)nc43)CC2)c(F)cc1F [Compound 12, (S)-7-(2-(4-(2,4-difluoro-5-(2-(methylsulfinyl)ethoxy)phenyl)piperazin-1-yl)ethyl)-2-(furan-2-yl)-7H-pyrazolo[4,3-e][1,2,4]triazolo[1,5-c]pyrimidin-5-amine]	> 140	162	0.4
Cn1c(=O)n(CCN2CCN(c3cc(OCCS(C)(=O)=O)c(F)cc3F)CC2)c2nc(N)n3nc(-c4ccco4)nc3c21 [Compound 9, 5-amino-3-(2-(4-(2,4-difluoro-5-(2-(methylsulfonyl)ethoxy)phenyl)piperazin-1-yl)ethyl)-8-(furan-2-yl)-1-methyl-1H-[1,2,4]triazolo[5,1-i]purin-2(3H)-one]	> 300	104	0.5
CNC(=O)c1cc(N2CCN(CCn3ncc4c3nc(N)n3nc(-c5ccco5)nc43)CC2)c(F)cc1F [Compound 4, 5-(4-(2-(5-amino-2-(furan-2-yl)-7H-pyrazolo[4,3-e][1,2,4]triazolo[1,5-c]pyrimidin-7-yl)ethyl)piperazin-1-yl)-2,4-difluoro-N-methylbenzamide]	8	150	0.3
CNC(=O)c1cc(N2CCN(CCn3c(=O)n(C)c4c3nc(N)n3nc(-c5ccco5)nc43)CC2)c(F)cc1F [Compound 3, 5-(4-(2-(5-amino-8-(furan-2-yl)-1-methyl-2-oxo-1H-[1,2,4]triazolo[5,1-i]purin-3(2H)-yl)ethyl)piperazin-1-yl)-2,4-difluoro-N-methylbenzamide]	53	176	0.1
Nc1nc(NCCN2CCN(c3cc(O[C@H]4CC[S@@+]([O-])CC4)c(F)cc3F)CC2)nc2nc(-c3ccco3)nn12 [Compound 14, (1s,4s)-4-(5-(4-(2-((7-amino-2-(furan-2-yl)-[1,2,4]triazolo[1,5-a][1,3,5]triazin-5-yl)amino)ethyl)piperazin-1-yl)-2,4-difluorophenoxy)tetrahydro-2H-thiopyran 1-oxide]	> 900	71	0.7
